Reference: patent US20250205240A1, “COMBINATIONS” (Recurium IP Holdings, LLC, priority 2022, published 2025)

Legend:
[1] = test system: CTG-1009 PDX model (BRAFmt CRC); assay type: in vivo, female athymic nude Foxn1nu mice; settings: ZN-c3 60 mg/kg QD p.o., encorafenib 20 mg/kg QD p.o., cetuximab 15 mg/kg BIW i.p., 28-day study
Experimental: (§1) PDX Models: Tumor fragments (CRC769, CRC563, CTG-1009) were brought out of cryopreservation and implanted into female athymic nude Foxn1nu mice. Fragments were allowed to grow then excised once an appropriate volume was reached. A tumor slurry was made of 50% freshly harvested tumors minced to small tumor fragments in PBS and 50% Matrigel. The tumor slurry was injected subcutaneously into 6-8 week old female athymic nude Foxn1nu mice on the flank.
(§2) Grouping and treatments started when the mean tumor volume reached about 220 mm^3 (with individual tumors in the range of 200-240 mm^3). Vehicle animals were treated daily with 10 mL/kg HP-β-CD p.o. (oral gavage). Encorafenib was prepared weekly in 0.5% carboxymethyl cellulose: 0.5% Tween 80:99% deionized water and dosed daily (QD) at the indicated doses orally (p.o.) (see Tables 4 and 5 for dosage amounts). ZN-c3 was prepared daily in 20% HP-B-CD and dosed daily at the indicated doses p.o. (see Tables 4 and 5 for dosage amounts). […] Body weight and tumor volume of all animals was measured twice weekly throughout the studies that were 21 or 22 days or 3 weeks in duration (for CDX models HT-29 and LS411N) or that were 28 days or 4 weeks in duration (for PDX models CRC769, CRC563 and CTG-1009). The measurement of tumor size was performed with a caliper and the tumor volume (mm3) was estimated using the formula: TV=a×b2/2 throughout the study, where “a” and “b” is long and short diameters of a tumor, respectively. Animals were euthanized when their individual tumor burden exceeded 2000 mm^3 or is in a continuing deteriorating condition or close to a comatose state.

[2] = test system: CRC769 PDX model (BRAFmt CRC); assay type: in vivo, female athymic nude Foxn1nu mice; settings: ZN-c3 60 mg/kg QD p.o., encorafenib 20 mg/kg QD p.o., cetuximab 20 mg/kg BIW i.p., 28-day study
Experimental: as §1, §2

LS411N cell line = assay: In vitro tumor cell proliferation assay (3D spheroid, 3D CTG), LS411N; assay type: cell-based; settings: Homo sapiens, LS-411N, 192 h
Experimental: (§3) Cell suspensions containing 1.5×10^3 total cells in 100 μL culture media were deposited in each well of an ultra-low attachment 96 well plate. Plates were incubated at 37° C. with […] and 5% CO2 for 72 h to allow for spheroid formation. […] ZN-c3 and/or Encorafenib compounds in DMSO were deposited into the plates using an automated drug dispenser at the indicated concentrations. Total DMSO content was normalized to 0.1% of the total volume in all assay conditions. Plates were sealed with breathable film to reduce evaporation and incubated at 37° C. with […] and 5% CO2 for 192 h. After 192 h, plates were removed from the incubator and allowed to come to room temperature. 100 μL room temperature 3D CTG reagent (Promega, Cat #G9683) was added to each well. Plates were agitated at 520 revolutions per minute (rpm) for 5 mins, allowed to stabilize protected from light for 30 mins, then luminescence was measured on an M5e plate reader (SpectraMax). Percent viability was calculated as percentage of cell viability relative to DMSO-only vehicle control.

HT-29 cell line = assay: In vitro tumor cell proliferation assay (3D spheroid, 3D CTG), HT-29; assay type: cell-based; settings: Homo sapiens
Experimental: as §3

[3] = test system: LS411N CDX model (BRAFmt CRC); assay type: in vivo, BALB/c nude mice; settings: ZN-c3 60 mg/kg QD p.o., encorafenib 20 mg/kg QD p.o., cetuximab 15 mg/kg BIW i.p.; for TGI: 21- or 22-day study
Experimental: (§4) CDX Models: 6-8 week old BALB/c nude mice were inoculated subcutaneously on the right flank with the single cell suspension of 95% viable tumor cells (5×10^6) in 100 μL RPMI 1640 without serum (COLO205), 95% viable tumor cells (2×10^6) in 100 μL McCoy's 5a Medium Modified without serum (HT-29), or 95% viable tumor cells (2×106) in 100 μL RPMI 1640 and Matrigel mixture (1:1 ratio) without serum (LS411N).
as §2

[4] = test system: HT-29 CDX model (BRAFmt CRC); assay type: in vivo, BALB/c nude mice; settings: ZN-c3 60 mg/kg QD p.o., encorafenib 15 mg/kg QD p.o., cetuximab 15 mg/kg BIW i.p.; for TGI: 21- or 22-day study
Experimental: as §4, §2

WEE1 = WEE1 (Homo sapiens, UniProt P30291); settings: as provided in WO 2019/173082; cited from earlier work
Sequence of WEE1 (P30291 whole entry, species assumed): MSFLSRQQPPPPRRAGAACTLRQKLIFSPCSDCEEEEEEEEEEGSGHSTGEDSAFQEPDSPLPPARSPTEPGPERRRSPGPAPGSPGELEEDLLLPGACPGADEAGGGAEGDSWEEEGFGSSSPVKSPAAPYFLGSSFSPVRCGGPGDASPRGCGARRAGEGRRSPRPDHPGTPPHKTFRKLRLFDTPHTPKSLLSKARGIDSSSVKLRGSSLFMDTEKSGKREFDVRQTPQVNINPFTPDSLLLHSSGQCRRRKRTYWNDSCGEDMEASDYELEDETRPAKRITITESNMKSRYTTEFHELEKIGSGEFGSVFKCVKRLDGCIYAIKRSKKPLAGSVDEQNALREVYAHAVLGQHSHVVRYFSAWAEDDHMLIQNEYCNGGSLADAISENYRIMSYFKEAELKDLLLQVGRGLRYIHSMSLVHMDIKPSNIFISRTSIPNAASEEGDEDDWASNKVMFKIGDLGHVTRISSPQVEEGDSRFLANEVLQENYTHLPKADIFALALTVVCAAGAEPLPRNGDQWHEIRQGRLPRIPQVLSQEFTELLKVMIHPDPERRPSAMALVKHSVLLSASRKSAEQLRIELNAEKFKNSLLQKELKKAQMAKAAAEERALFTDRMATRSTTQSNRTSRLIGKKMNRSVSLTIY

[5] = test system: CRC563 PDX model (BRAFmt CRC); assay type: in vivo, female athymic nude Foxn1nu mice; settings: ZN-c3 60 mg/kg QD p.o., encorafenib 20 mg/kg QD p.o., cetuximab 20 mg/kg BIW i.p., 28-day study
Experimental: as §1, §2

[6] = LS411N spheroids, 250 nM ZN-c3, 25 nM encorafenib, relative to 0.1% DMSO
[7] = HT-29 spheroids, 192 h, 250 nM ZN-c3, 1.6 nM encorafenib, relative to 0.1% DMSO

Compound | TGI [1] | TGI [2] | inhibition at 0.025 µM (LS411N cell line; [6]) | inhibition at 0.01 µM (HT-29 cell line; HT-29, 192 h) | inhibition at 0.0016 µM (HT-29 cell line; [7]) | Tumor Vol. Change from D 14-D 21 (%) [3] | TGI [3] | Tumor Vol. Change from D 14-D 21 (%) [4] | TGI [4] | activity against WEE1 (WEE1) | TGI [5] | inhibition at 0.35 µM (LS411N cell line) | inhibition at 0.25 µM (LS411N cell line; [6]) | inhibition at 0.3 µM (HT-29 cell line; HT-29, 192 h) | inhibition at 0.25 µM (HT-29 cell line; [7])
COC(=O)N[C@@H](C)CNc1nccc(-c2cn(C(C)C)nc2-c2cc(Cl)cc(NS(C)(=O)=O)c2F)n1 [Encorafenib, encorafenib, reference compound] | 80.0 | 69.0 | 28.3% | 75.8% | 39.5% | 36.6% | 64.6 | 36.9% | 42.6 |  |  |  |  |  | 
C=CCn1c(=O)c2cnc(Nc3ccc(N4CCN(C)CC4)cc3)nc2n1-c1ccc2c(n1)[C@@](O)(CC)CC2 [ZN-c3, (R)-2-allyl-1-(7-ethyl-7-hydroxy-6,7-dihydro-5H-cyclopenta[b]pyridin-2-yl)-6-((4-(4-methylpiperazin-1-yl)phenyl)amino)-1,2-dihydro-3H-pyrazolo[3,4-d]pyrimidin-3-one] | 51.2 | 19.0 |  |  |  | 35.8% | 69.0 | 36.3% | 15.0 | active against WEE1 | 43.4 | 21.6% | 27.5% | 34.5% | 39%
